Measured values as given in US12419956B2, “Controlled drug release system of photoresponsive nanocarriers, methods of making and using thereof” (THE UNIVERSITY OF HONG KONG, priority 2020, dated 2025).

Columns and labels:
[1] = Photocleavage under 505 nm green LED light, determined by HPLC; type: physicochemical; settings: free DTAEA in 50% acetonitrile/H2O, 50 mW/cm^2, 1 min
Protocol: The photocleavage mechanism of coumarin carbamate derivatives was reported as carbocation formation following with the addition of —OH group in aqueous solutions (FIG. 6a).^9 To quantitatively measure the photocleavage rate of free DTAEA, quartz cuvettes containing DTAEA in 50% acetonitrile/H2O was irradiated with 505 nm green LED light. At predetermined time points, the remaining DTAEA and released DEAdcCM were determined by high performance liquid chromatography (HPLC). […] The similar photocleavage process in DTAEA NPs took about 5 minutes for the completely consumption of DTAEA (FIG. 6c), which was slightly slow down compared to free DTAEA in the mixture of acetonitrile and water. […] Based on the photocleavage performance of DTAEA and DTNPs, the irradiation duration was set to be no less than 5 min with 505 nm green LED light at 50 mW/cm^2.

[2] = system: human umbilical vein endothelial cells (HUVEC); test: Light-triggered cellular uptake in HUVEC cells, fluorescence microscopy; type: cell-based
Protocol: We further investigated the cellular uptake of the photo-released DOX by fluorescence microscopy and flow cytometry. In this work, human umbilical vein endothelial cells (HUVEC) and human retinoblastoma cells (WERI-Rb-1) were employed to investigate the cellular uptake. The cells were treated with various formulations, including free DOX, DOX/DTNPs and DOX/DTNPs+light irradiation (hv).

[3] = Systemic toxicity in treated tumor-bearing mice: body weight and H&E histology; type: in vivo, BALB/c nude mice; settings: drug administration period (Day 0 to Day 10), 5 mg/kg I.V.
Protocol: (§1) Generally, WERI-Rb-1 cells were injected slowly into the vitreous cavity at the right eyes of Bulb/c nude mice for the tumor implantation. […] The light irradiation was performed at the right eyes immediately after injection. […] To evaluate the biodistribution, the mice were euthanized after the above treatment, and their eyes (both sides), heart, lung, liver, spleen and kidney were further exteriorized for ex vivo fluorescence imaging. […] Seven days after the intraocular injection of WERI-Rb-1-GFP-luc cells, the luminescence signals from the cells can be determined by in vivo imaging system for in situ monitoring of orthotopic ocular tumors. […] The dosage of drug administration was precisely controlled based on the body weight of mice and set as 5 mg/kg body weight. The I.V. injection of formulations was applied every two days for five times. […] During the treatment, bioluminescence from the tumors was detected for tumor growth monitoring. […] Considering individual differences, tumor growth curves (FIG. 14b) of different groups were obtained by setting the bioluminescence intensity on the day before treatment (Day 0) as the origin and determining the quantitative changes in the subsequent days. […] The histological patterns of tumor-bearing retina and main organs were studied by hematoxylin and eosin (H&E) staining (FIG. 15 and FIG. 16).

[4] = system: WERI-Rb-1-GFP-luc orthotopic tumor; test: Therapeutic effect on orthotopic WERI-Rb-1-GFP-luc tumors, bioluminescence; type: in vivo, BALB/c nude mice; settings: Day 25; 5 mg/kg I.V. every two days for five times; no irradiation
Protocol: as §1

| DTAEA cleaved [1] | Compound | red fluorescence intensity (DOX) in cells ([2]; HUVEC, no irradiation) | intracellular distribution of DOX fluorescence ([2]; without irradiation) | body weight decrease [3] | increase of bioluminescence intensity in eyes, compared to Day 0 [4] |
| --- | --- | --- | --- | --- | --- |
| More than 90% | CCN(CC)c1ccc2c(c1)OC(=C(C#N)C#N)C=C2COC(=O)NCCN(CCNC(=O)OCC1=CC(=C(C#N)C#N)Oc2cc(N(CC)CC)ccc21)CCNC(=O)OCC1=CC(=C(C#N)C#N)Oc2cc(N(CC)CC)ccc21 [DTAEA, (DEAdcCM)3-TAEA] | – | – | – | – |
| – | COc1cccc2c1C(=O)c1c(O)c3c(c(O)c1C2=O)C[C@@](O)(C(=O)CO)C[C@@H]3O[C@H]1C[C@H](N)[C@H](O)[C@H](C)O1 [free DOX, doxorubicin] | as high as the irradiated group | observed in the cell nuclei | about 10% | 64.0 folds |
